Usually IC50 stands for the point on the concentration scale where inhibition reaches its midpoint. The low end stands for greater potency, the high end for weaker potency.

The target of assay [1] is Human immunodeficiency virus type 1 reverse transcriptase (Human immunodeficiency virus 1, UniProt Q72547, K103N). The experiment in a line: Inhibitory activity against K103N mutant of HIV-1 reverse transcriptase.
In assay [2] the test system is MT4. Put plainly: Antiviral activity in cell culture tested ex vivo in MT-4 cells using the IIIb strain of HIV-1. Type of assay: functional. The note with it: Homo sapiens, read-out: CIC95.
The target of assay [3] is Human immunodeficiency virus type 1 reverse transcriptase (Human immunodeficiency virus 1, UniProt Q72547, K103N/Y181C). The experiment in a line: Inhibitory activity against K103N/Y181C double mutant of HIV-1 reverse transcriptase.

Molecules are shown by their SMILES.

In assay [1], `O=S(=O)(c1ccccc1)c1c(C2=NCCS2)[nH]c2ccc(Cl)cc12` returned a half-inhibitory concentration (IC50) of 1250 nM. That is a single-digit micromolar value.

As to `CCCc1[nH]c(-c2[nH]c3ccc(Cl)cc3c2S(=O)(=O)c2ccccc2)nc1C`, the IC95 in assay [2] was 50 nM.

Regarding `O=S(=O)(c1ccccc1)c1c(-c2nc3c([nH]2)CCCC3)[nH]c2ccc(Cl)cc12`, in assay [2], the IC95 is 50 nM.

Turning to `O=S(=O)(c1ccccc1)c1c(-c2ncc[nH]2)[nH]c2ccc(Cl)cc12`, the IC95 in assay [2] worked out at 2 nM.

In the case of `Cc1nc(-c2[nH]c3ccc(Cl)cc3c2S(=O)(=O)c2ccccc2)[nH]c1C`, the values for the concentration for half-maximal inhibition (IC50) in assay [3] and in assay [1] were greater than 30000 nM and 22 nM, respectively. The IC95 in assay [2] stood at 12 nM.

Turning to `Cc1cnc(-c2[nH]c3ccc(Cl)cc3c2S(=O)(=O)c2ccccc2)[nH]1`, the IC95 in assay [2] was 12 nM.

With `CCc1nc(-c2[nH]c3ccc(Cl)cc3c2S(=O)(=O)c2ccccc2)[nH]c1CC`, in assay [2], the IC95 is 50 nM.

Regarding `Nc1nc(-c2[nH]c3ccc(Cl)cc3c2S(=O)(=O)c2ccccc2)cs1`, the IC95 in assay [2] was greater than 200 nM.

(Values after ChEMBL document CHEMBL1151605, “2-Heterocyclic indole-3-sulfones as inhibitors of HIV-1 reverse transcriptase” (Bioorg Med Chem Lett, 1995).)
